Where a name gives a salt, the structure may show the parent alone.
System: HUVECs
Test: XTT cell viability assay (Example 106)
Format: cell-based, human
Conditions: Homo sapiens, HUVEC, 72 hours, read-out: Inhibition of HUVEC cell prolifiration (IC50)
Protocol: Some compounds described by the general structure (B) were tested for cell viability. XTT assay: HUVECs were seeded at 10,000 cells/well of a tissue culture treated 96-well plate treated with collagen type I and grown overnight in the complete EGM-2 media as described above. The following morning, the inhibitors were serial diluted with DMSO and added to the cells with a final DMSO concentration of 1%. After 72 hours cell viability was measured with an XTT assay (Sigma, St. Louis, Mo.). The cells were also photographed to compare morphological differences to the XTT trends observed. Determination of the IC50 values was performed with quantitative software (Prism software package, GraphPad Software, San Diego Calif.).

## CNC(=O)c1cc(Oc2ccc(Nc3nnc(-c4ccc(Cl)c(C(F)(F)F)c4)[nH]3)cc2)ccn1 [4-[4-({5-[4-chloro-3-(trifluoromethyl)phenyl]-4H-1,2,4-triazol-3-yl}amino)phenoxy]-N-methylpyridine-2-carboxamide trifluoroacetate salt]
  IC50: > 40 µM

## CNC(=O)c1cc(Oc2cccc(-c3nnc(Nc4ccc(Cl)c(C(F)(F)F)c4)[nH]3)c2)ccn1 [4-{3-[5-(4-chloro-3-trifluoromethyl-phenylamino)-4H-[1,2,4]triazol-3-yl]-phenoxy}-pyridine-2-carboxylic acid methylamide trifluoroacetic acid salt]
  IC50: > 20 µM

## CNC(=O)c1cc(Oc2ccc(Nc3nnc(-c4ccc(OC(F)(F)F)cc4)[nH]3)cc2)ccn1 [4-{4-[5-(4-trifluoromethoxy-phenyl)-4H-[1,2,4]triazol-3-ylamino]-phenoxy}-pyridine-2-carboxylic acid methylamide trifluoroacetic acid salt]
  IC50: 2.2 µM

## CNC(=O)c1cc(Oc2ccc(-c3nnc(Nc4ccc(OC(F)(F)F)cc4)[nH]3)cc2)ccn1 [4-{4-[5-(4-trifluoromethoxy-phenylamino)-4H-[1,2,4]triazol-3-yl]-phenoxy}-pyridine-2-carboxylic acid methylamide trifluoroacetic acid salt]
  IC50: > 40 µM

## FC(F)(F)c1ccc(Cl)c(Nc2nnc(-c3ccc(Oc4cncnc4)cc3)o2)c1 [5-[4-(Pyrimidin-5-yloxy)phenyl]-N-[2-chloro-5-(trifluoromethyl)-phenyl]-1,3,4-oxadiazol-2-amine]
  IC50: ~20 µM

## FC(F)(F)c1cc(-c2nnc(Nc3ccc(Oc4ccncc4)cc3)[nH]2)ccc1Cl [5-[4-chloro-3-(trifluoromethyl)phenyl]-N-[4-(pyridine-4-yloxy)phenyl]-4H-1,2,4-triazol-3-amine trifluoroacetate salt]
  IC50: > 40 µM

## Nc1cc(Oc2ccc(-c3nnc(Nc4cc(C(F)(F)F)ccc4Cl)o3)cc2)nc(N)n1 [6-(4-{5-[(2-chloro-5-trifluoromethyl-phenyl)amino]-1,3,4-oxadiazol-2-yl}phenoxy)pyrimidine-2,4-diamine]
  IC50: ~20 µM

## Nc1ccc(Oc2ccc(-c3nnc(Nc4ccc(Cl)c(C(F)(F)F)c4)[nH]3)cc2)nn1 [6-{4-[5-(4-chloro-3-trifluoromethyl-phenylamino)-4H-[1,2,4]triazol-3-yl]-phenoxy}-pyridazin-3-ylamine trifluoroacetic acid salt]
  IC50: 1.79 µM

## Nc1ccc(Oc2ccc(-c3nnc(Nc4ccc(OC(F)(F)F)cc4)[nH]3)cc2)nn1 [6-{4-[5-(4-trifluoromethoxy-phenylamino)-4H-[1,2,4]triazol-3-yl]-phenoxy}-pyridazin-3-ylamine trifluoroacetic acid salt]
  IC50: > 20 µM

## Nc1cc(Oc2ccc(-c3nnc(Nc4ccc(OC(F)(F)F)cc4)[nH]3)cc2)nc(N)n1 [6-{4-[5-(4-trifluoromethoxy-phenylamino)-4H-[1,2,4]triazol-3-yl]-phenoxy}-pyrimidine-2,4-diamine trifluoroacetic acid salt]
  IC50: 6 µM

## FC(F)(F)Oc1ccc(Nc2nnc(-c3ccc(Oc4ccncc4)cc3)[nH]2)cc1 [{5-[4-(pyridin-4-yloxy)-phenyl]-4H-[1,2,4]triazol-3-yl]-(4-trifluoromethoxy-phenyl)-amine trifluoroacetic acid salt]
  IC50: > 40 µM

Source: US8372971B2, “Heterocyclic compounds and methods of use” (TargeGen, Inc., priority 2004, dated 2013)
